Read-outs that look alike come from different tables or passages of the source.

The values below come from patent US20150150246A1, “USE OF INSECT GROWTH REGULATORS IN COCKROACH CONTROL” (MCLAUGHLIN GORMLEY KING COMPANY, priority 2013, published 2015).

The test system of one data set is German cockroach males. The settings on record: cited from earlier work.
The subject of data set [1] is German cockroaches. Kind of data set: Reproductive inhibition by harborages contaminated with pyriproxyfen-containing fecal pellets (secondary exposure). Type of data set: in vivo, German cockroach.
The test system of a further data set is cockroaches. Kind of data set: Efficacy of bait at different pyriproxyfen concentrations. The following applies: in vivo. As for the experimental part: In one embodiment, the bait comprises abamectin at 0.05% and pyriproxyfen at 0.5% by weight. Efficacy was observed from 0.05 to 1.0% of pyriproxyfen. No higher doses were tested due to physical changes to the matrix, but higher amounts could be used by modifying the matrix. Pyriproxyfen is non-repellent so biologically 1.0% is not an absolute upper concentration limit.

The subject of data set [2] is German cockroaches. The settings on record: male, German cockroach, in vivo, po. As for the experimental part: Adult male German cockroaches were obtained directly from German cockroach colonies maintained in the laboratory after a brief exposure to CO2 to facilitate handling. Cohorts of similar age (˜11 weeks old), adult male cockroaches (˜300 individuals) were randomly selected and moved into holding containers (Lock&Lock containers, Lock&Lock Co. Ltd., Dallas, Tex., USA) using a pair of soft tissue forceps. Cockroaches were starved in holding containers for 48 hours. Following starvation, cockroaches were transferred into the fecal collection apparatus. The fecal collection apparatus consisted of two vertically connected holding containers (Lock&Lock Co. Ltd., Dallas, Tex., USA) separated by a mesh screen. Cockroaches were introduced into the upper compartment of the collection apparatus and fecal pellets were collected from the floor of the lower container. The floor of the lower container was sealed with aluminum foil to facilitate the removal of fecal pellets. […] Fecal pellets were collected weekly until a sufficient amount of faeces was obtained to achieve analytical quantification. Quantification of pyriproxyfen was made by standard high-performance liquid chromatography-mass spectrometry (HPLC-MS) developed for pyriproxyfen. […]

With `N#Cc1nn(-c2c(Cl)cc(C(F)(F)F)cc2Cl)c(N)c1[S+]([O-])C(F)(F)F` (stereo not drawn) [fipronil], the “mortality of German cockroach males” value in the data set on German cockroach males (24-hour post-bait introduction, laboratory studies) was 100%.

In the case of `CC(COc1ccc(Oc2ccccc2)cc1)Oc1ccccn1` (stereo not drawn) [pyriproxyfen], the “suppression of the reproductive output of exposed cockroaches” value in the data set with German cockroaches [1] (consumption of pyriproxyfen contaminated frass (secondary exposure)) was found to be 100%. The “suppression of reproductive maturation” value with German cockroaches [1] (fecal pellets deposited following consumption of pyriproxyfen) was determined as 100%. Besides, the repellency result with cockroaches is “non-repellent”. Besides, the “portion of ingested pyriproxyfen present in the frass” value with German cockroaches [2] was about 60%.

On to abamectin, for which, in the data set on German cockroach males (in 5 days, same conditions), the “mortality of German cockroach males” value is 100%.
